According to US6737383B1, “Herbicidal oxadiazolidines” (priority 1999, dated 2004):

Legend:
wild poinsettia = assay: Test C postemergence wild poinsettia; assay type: in vivo, Euphorbia heterophylla; conditions: 0 to 100 scale, 0 no effect, 100 complete control
Summary of the method: (§1)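 Activity is expressed as percent-style visual control, 0 (no effect) to 100 (complete control), assessed approximately 14 to 21 days after application, relative to untreated plants. Application was postemergence, using a non-phytotoxic solvent formulation with surfactant.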

bermuda-grass = assay: Test D bermudagrass; assay type: in vivo, Cynodon dactylon; conditions: Preemergence, 0 to 100 scale
Summary of the method: (§2)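 Visual injury ratings, 0 = no injury to 100 = complete control, taken 14 to 21 days after treatment. Test chemicals were in a surfactant-containing non-phytotoxic solvent; preemergence treatments went onto the sandy loam surface of seeded greenhouse pots within one day of sowing.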

guineagrass = assay: Test D guineagrass; assay type: in vivo, Panicum maximum; conditions: Preemergence, 0 to 100 scale
Summary of the method: as §2

dallisgrass = assay: Test D dallisgrass; assay type: in vivo, Paspalum dilatatum; conditions: Preemergence, 0 to 100 scale
Summary of the method: as §2

large crabgrass = assay: Test D large crabgrass; assay type: in vivo, Digitaria sanguinalis; conditions: Preemergence, 0 to 100 scale
Summary of the method: as §2

corn = assay: Test C postemergence corn; assay type: in vivo, Zea mays; conditions: 0 to 100 scale, 0 no effect, 100 complete control
Summary of the method: as §1

redroot pigweed = assay: Test C postemergence redroot pigweed; assay type: in vivo, Amaranthus retroflexus; conditions: 0 to 100 scale, 0 no effect, 100 complete control
Summary of the method: as §1

sandbur = assay: Test D sandbur; assay type: in vivo, Cenchrus echinatus; conditions: Preemergence, 0 to 100 scale
Summary of the method: as §2

purple nutsedge = assay: Test D purple nutsedge; assay type: in vivo, Cyperus rotundus; conditions: Preemergence, 0 to 100 scale
Summary of the method: as §2

pitted morningglory = assay: Test D pitted morningglory; assay type: in vivo, Ipomoea lacunosa; conditions: Preemergence, 0 to 100 scale
Summary of the method: as §2

arrowleaf sida = assay: Test C postemergence arrowleaf sida; assay type: in vivo, Sida rhombifolia; conditions: 0 to 100 scale, 0 no effect, 100 complete control
Summary of the method: as §1

goosegrass = assay: Test D goosegrass; assay type: in vivo, Eleusine indica; conditions: Preemergence, 0 to 100 scale
Summary of the method: as §2

Johnson grass = assay: Test D Johnson grass; assay type: in vivo, Sorghum halepense; conditions: Preemergence, 0 to 100 scale
Summary of the method: as §2

cocklebur = assay: Test C postemergence cocklebur; assay type: in vivo, Xanthium strumarium; conditions: 0 to 100 scale, 0 no effect, 100 complete control
Summary of the method: as §1

itchgrass = assay: Test D itchgrass; assay type: in vivo, Rottboellia exaltata; conditions: Preemergence, 0 to 100 scale
Summary of the method: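 Scoring used a 0–100 visual injury scale, with 0 meaning no effect and 100 complete control, assessed 14–21 days after application alongside untreated pots. Preemergence treatments went onto sandy loam surfaces of separately potted seeds within a day of sowing.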

common groundsel = assay: Test D common groundsel; assay type: in vivo, Senecio vulgaris; conditions: Preemergence, 0 to 100 scale
Summary of the method: as §2

ivyleaf morningglory = assay: Test C postemergence ivyleaf morningglory; assay type: in vivo, Ipomoea hederacea; conditions: 0 to 100 scale, 0 no effect, 100 complete control
Summary of the method: as §1

Spanishneedles = assay: Test D Spanishneedles; assay type: in vivo, Bidens bipinnata; conditions: Preemergence, 0 to 100 scale
Summary of the method: as §2

[1] = Rate 16 g/ha, 0 no injury, 100 complete control
[2] = Rate 32 g/ha, 0 no injury, 100 complete control
[3] = Rate 64 g/ha, 0 no injury, 100 complete control
[4] = Rate 125 g/ha, 0 no injury, 100 complete control

C=CCn1c(=O)on(C(=O)N(c2ccc(F)cc2)C(C)C)c1=O [Compound 146]
65: Plant response rating, Bermudagrass (bermuda-grass; [1]) | Purple nutsedge plant response rating (purple nutsedge; [3]) | Plant response rating, Com. groundsel (common groundsel; [1])
85: Plant response rating, Sandbur (sandbur; [2]) | Plant response rating Arrowleaf sida (arrowleaf sida; Rate 560 g/ha) | Plant response rating, Itchgrass (itchgrass; [1]) | Plant response rating, Com. groundsel (common groundsel; Rate 250 g/ha) | Spanishneedles plant response rating (Spanishneedles; [3])
0: Plant response rating Wild poinsettia (wild poinsettia; Rate 140 g/ha) | Plant response rating, Corn (corn; Rate 140 g/ha) | Plant response rating, Corn (corn; Rate 280 g/ha) | Plant response rating, Redroot pigweed (redroot pigweed; Rate 140 g/ha) | Plant response rating, Sandbur (sandbur; [1]) | Plant response rating, P. morninglory (pitted morningglory; [1]) | Plant response rating, P. morninglory (pitted morningglory; [2]) | Plant response rating, P. morninglory (pitted morningglory; [3]) | Plant response rating, P. morninglory (pitted morningglory; [4]) | Plant response rating, P. morninglory (pitted morningglory; Rate 250 g/ha) | Plant response rating, Com. groundsel (common groundsel; [2]) | Plant response rating, Com. groundsel (common groundsel; [3]) | Plant response rating I. morningglory (ivyleaf morningglory; Rate 140 g/ha) | Plant response rating, Spanishneedles (Spanishneedles; [1])
95: Plant response rating, Bermudagrass (bermuda-grass; [3]) | Plant response rating, Guineagrass (guineagrass; [2]) | Plant response rating Johnsongrass (Johnson grass; Rate 500 g/ha)
75: Plant response rating, Purple nutsedge (purple nutsedge; Rate 250 g/ha) | Plant response rating, Com. groundsel (common groundsel; [4]) | Plant response rating, Spanishneedles (Spanishneedles; [2])
98: Plant response rating, Dallisgrass (dallisgrass; [3]) | Plant response rating, Goosegrass (goosegrass; [2])
60: Plant response rating Johnsongrass (Johnson grass; [1]) | Plant response rating Johnsongrass (Johnson grass; [2]) | Plant response rating Johnsongrass (Johnson grass; [3])
70: Plant response rating Wild poinsettia (wild poinsettia; Rate 1120 g/ha) | Purple nutsedge plant response rating (purple nutsedge; [4]) | Plant response rating, Cocklebur (cocklebur; Rate 560 g/ha) | Plant response rating, Cocklebur (cocklebur; Rate 1120 g/ha)
80: Plant response rating, Dallisgrass (dallisgrass; [1]) | Plant response rating Johnsongrass (Johnson grass; [4])
40: Plant response rating Wild poinsettia (wild poinsettia; Rate 280 g/ha) | Plant response rating, Purple nutsedge (purple nutsedge; [1]) | Plant response rating, Purple nutsedge (purple nutsedge; [2]) | Plant response rating Arrowleaf sida (arrowleaf sida; Rate 140 g/ha) | Plant response rating, Cocklebur (cocklebur; Rate 140 g/ha) | Plant response rating, Cocklebur (cocklebur; Rate 280 g/ha)
50: Plant response rating Wild poinsettia (wild poinsettia; Rate 560 g/ha) | Plant response rating, Corn (corn; Rate 1120 g/ha) | Plant response rating I. morningglory (ivyleaf morningglory; Rate 1120 g/ha)
45: Plant response rating Arrowleaf sida (arrowleaf sida; Rate 280 g/ha)
5: Plant response rating, Corn (corn; Rate 560 g/ha)
20: Plant response rating, Redroot pigweed (redroot pigweed; Rate 1120 g/ha) | Plant response rating, P. morninglory (pitted morningglory; Rate 500 g/ha) | Plant response rating I. morningglory (ivyleaf morningglory; Rate 280 g/ha) | Plant response rating I. morningglory (ivyleaf morningglory; Rate 560 g/ha)
100: Plant response rating, Bermudagrass (bermuda-grass; [2]) | Plant response rating, Bermudagrass (bermuda-grass; Rate 500 g/ha) | Plant response rating, Guineagrass (guineagrass; [3]) | Plant response rating, Guineagrass (guineagrass; [4]) | Plant response rating, Guineagrass (guineagrass; Rate 250 g/ha) | Plant response rating, Guineagrass (guineagrass; Rate 500 g/ha) | Plant response rating, Dallisgrass (dallisgrass; [4]) | Plant response rating, Dallisgrass (dallisgrass; Rate 250 g/ha) | Plant response rating, Dallisgrass (dallisgrass; Rate 500 g/ha) | Plant response rating Large crabgrass (large crabgrass; [2]) | Plant response rating Large crabgrass (large crabgrass; [3]) | Plant response rating Large crabgrass (large crabgrass; [4]) | Plant response rating Large crabgrass (large crabgrass; Rate 250 g/ha) | Plant response rating Large crabgrass (large crabgrass; Rate 500 g/ha) | Sandbur plant response rating (sandbur; [3]) | Sandbur plant response rating (sandbur; [4]) | Plant response rating, Sandbur (sandbur; Rate 250 g/ha) | Plant response rating, Sandbur (sandbur; Rate 500 g/ha) | Plant response rating, Purple nutsedge (purple nutsedge; Rate 500 g/ha) | Plant response rating, Goosegrass (goosegrass; [3]) | Plant response rating, Goosegrass (goosegrass; [4]) | Plant response rating, Goosegrass (goosegrass; Rate 250 g/ha) | Plant response rating, Goosegrass (goosegrass; Rate 500 g/ha) | Plant response rating, Itchgrass (itchgrass; Rate 250 g/ha) | Plant response rating, Itchgrass (itchgrass; Rate 500 g/ha) | Plant response rating, Com. groundsel (common groundsel; Rate 500 g/ha) | Plant response rating, Spanishneedles (Spanishneedles; Rate 250 g/ha) | Plant response rating, Spanishneedles (Spanishneedles; Rate 500 g/ha)
90: Plant response rating, Bermudagrass (bermuda-grass; [4]) | Plant response rating, Bermudagrass (bermuda-grass; Rate 250 g/ha) | Plant response rating, Guineagrass (guineagrass; [1]) | Plant response rating, Dallisgrass (dallisgrass; [2]) | Plant response rating Large crabgrass (large crabgrass; [1]) | Plant response rating Arrowleaf sida (arrowleaf sida; Rate 1120 g/ha) | Plant response rating, Goosegrass (goosegrass; [1]) | Plant response rating Johnsongrass (Johnson grass; Rate 250 g/ha) | Plant response rating, Itchgrass (itchgrass; [2]) | Plant response rating, Itchgrass (itchgrass; [3]) | Plant response rating, Itchgrass (itchgrass; [4]) | Spanishneedles plant response rating (Spanishneedles; [4])
